Laboratory results as given in article PMC4287973, “Tumor cell-specific inhibition of MYC function using small molecule inhibitors of the HUWE1 ubiquitin ligase” (EMBO Molecular Medicine, 2014).

What was measured:
NEDD4L = target: T1, NEDD4L (Homo sapiens, UniProt Q96PU5); experiment: in vitro HECT-domain auto-ubiquitination assay, NEDD4L; assay type: biochemical
T1 construct: HECT-domains of multiple ligases auto-ubiquitinate in in vitro assays containing both UBA1 and UbcH5b
T1 sequence (Q96PU5 640-974 limits assumed): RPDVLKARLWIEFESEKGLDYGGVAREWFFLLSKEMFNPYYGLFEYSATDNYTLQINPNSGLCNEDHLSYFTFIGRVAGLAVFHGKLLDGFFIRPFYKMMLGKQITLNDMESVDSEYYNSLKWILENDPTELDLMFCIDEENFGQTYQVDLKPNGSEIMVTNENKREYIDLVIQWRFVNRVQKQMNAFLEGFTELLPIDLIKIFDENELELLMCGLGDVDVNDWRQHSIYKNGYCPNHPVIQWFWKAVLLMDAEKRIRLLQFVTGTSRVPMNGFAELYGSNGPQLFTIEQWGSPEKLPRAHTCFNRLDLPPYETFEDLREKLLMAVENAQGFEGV

[1] = tested on: MYC target gene sets in Ls174T cells; experiment: Microarray gene expression and GSEA in Ls174T cells; assay type: cell-based, human; settings: for number of genes downregulated (microarray) / number of genes upregulated (microarray): Ls174T, 24 h, cut-off fold change 2, P < 0.01
Procedure: Finally, shRNA-mediated depletion of p53 (Supplementary Fig S8, upper panel) had no effect on regulation of MYC target genes by either compound (Supplementary Fig S8, lower panel). Collectively, the data establish that these compounds block MYC-dependent transcriptional activation via inhibition of HUWE1 in colon cancer cells.
Control or HUWE1-depleted Ls174T cells were treated with HUWE1 inhibitors or DMSO as control for 24 h. Expression of different MYC-induced target genes was analyzed by RQ–PCR. Error bars show SD of triplicate technical assays from one representative experiment (n = 5). • Time-dependent expression of the differentiation marker MUC2 upon HUWE1 inhibition. Ls174T cells were treated with HUWE1 inhibitors for the indicated times. Error bars show SD of triplicate technical assays from one representative experiment (n = 3). • Gene set enrichment analysis (GSEA) of gene expression changes upon HUWE1 inhibition. Ls174T cells were treated for 24 h with either HUWE1 inhibitor or DMSO as control. RNA was isolated and subjected to a microarray and gene set enrichment analysis. […] P-values were calculated using a test for hypergeometric distribution. • Heat map comparing gene expression after HUWE1 depletion to treatment with HUWE1 inhibitors. The left panel summarizes expression of all genes (n = 10,452) ordered according to their expression after HUWE1 knockdown. […] MYC binding data were taken from HeLa cells. […] The upper panels display examples of MYC-activated gene sets and their response to inhibition of HUWE1.
Microarray analyses were performed on a 44K Whole Human Genome Array (G4845A 026652, Agilent), and raw data were generated with the Feature Extraction software v10.1.1.1 (Agilent).
The P-value was calculated using a one-sample two-tailed Student's t-test with μ = 0. Gene set enrichment analysis (GSEA) was performed using default settings and the C2 gene sets from the MSigDB (www.broadinstitute.org/gsea/msigdb). To compare two GSEA, the normalized enrichment scores (NES) for all repressed gene sets were plotted and gene sets containing > 25% ribosomal protein genes were highlighted. Data are presented as means with standard deviation unless defined differently in the figure legends. P-values were calculated using Student's t-test.

ITCH = target: T2, ITCH (Homo sapiens, UniProt Q96J02); experiment: in vitro HECT-domain auto-ubiquitination assay, ITCH; assay type: biochemical
T2 construct: HECT-domains of multiple ligases auto-ubiquitinate in in vitro assays containing both UBA1 and UbcH5b

[2] = tested on: crypt cultures of normal intestinal epithelial cells; experiment: Survival and viability of intestinal crypt (organoid) cultures; settings: for fraction of individual crypts that died: long-term incubation of primary crypt cultures
Procedure: Murine intestinal crypt cultures were established from wild-type mice of a mixed background (50% C57Bl6J, 50% S129) as previously described (Sato et al, [2009]). Briefly, intestines were isolated and flushed with PBS. Villi were removed by scraping and remaining tissue cut and washed with PBS. Crypt extraction was carried out in PBS + 2 mM EDTA for 30 min at 4 °C. Isolated crypts were washed with PBS and plated in growth factor reduced Matrigel (BD Biosciences). Crypts were grown in Advanced DMEM (Invitrogen) supplemented with N2 (Invitrogen), B27 (Invitrogen), EGF (Peprotech), Noggin (Peprotech), and R-spondin (Peprotech). Media were replaced every 2 days and crypts passaged weekly. […] Organoid survival was scored at this point based on their microscopic appearance. Cell viability was also determined using a CellTiter-Blue Cell Viability Assay (Promega) according to the manufacturer's instructions.
end of the experiment, the number of life crypts was counted by visual inspection.

NEDD4 = target: T3, NEDD4 (Homo sapiens, UniProt P46934); experiment: in vitro HECT-domain auto-ubiquitination assay, NEDD4; assay type: biochemical
T3 construct: HECT-domains of multiple ligases auto-ubiquitinate in in vitro assays containing both UBA1 and UbcH5b
T3 sequence (P46934 984-1318 limits assumed, species assumed): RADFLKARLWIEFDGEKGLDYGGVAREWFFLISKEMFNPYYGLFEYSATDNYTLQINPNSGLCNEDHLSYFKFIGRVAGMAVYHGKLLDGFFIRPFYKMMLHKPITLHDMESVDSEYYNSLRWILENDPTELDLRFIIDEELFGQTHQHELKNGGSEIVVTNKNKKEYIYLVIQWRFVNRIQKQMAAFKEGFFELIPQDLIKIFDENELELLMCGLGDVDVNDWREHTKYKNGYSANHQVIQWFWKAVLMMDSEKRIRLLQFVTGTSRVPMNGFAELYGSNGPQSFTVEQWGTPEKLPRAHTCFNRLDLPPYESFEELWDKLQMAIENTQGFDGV
Procedure: Briefly, the HECT-domain of HUWE1 was biotin-tagged, attached to streptavidin-coated 96-well plates, and incubated with UBA1, UbcH5b, a ubiquitin-conjugating enzyme that supports HUWE1 activity in vitro (Adhikary et al, [2005]), ATP, and MYC-tagged ubiquitin. Auto-ubiquitination was detected using a europium-labeled MYC antibody and appropriate detection reagents (Fig3A). […] These assays were used to analyze the specificity of the identified inhibitors.

T2 sequence (Q96J02 569-903 limits assumed, species assumed): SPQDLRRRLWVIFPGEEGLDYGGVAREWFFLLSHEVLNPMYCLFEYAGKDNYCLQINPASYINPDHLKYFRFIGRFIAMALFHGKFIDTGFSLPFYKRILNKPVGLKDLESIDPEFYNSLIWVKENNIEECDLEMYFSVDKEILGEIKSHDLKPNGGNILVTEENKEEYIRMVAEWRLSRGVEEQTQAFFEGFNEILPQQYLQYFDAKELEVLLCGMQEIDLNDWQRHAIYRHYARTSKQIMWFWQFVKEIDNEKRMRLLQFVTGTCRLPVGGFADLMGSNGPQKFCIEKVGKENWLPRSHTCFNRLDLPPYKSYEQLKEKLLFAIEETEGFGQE

For `Cc1c(C(=O)Nc2ccc(CN)cc2)ncnc1N1CCC(C#N)(c2ccccc2)CC1` [BI8622], the IC50 (NEDD4L) was greater than 50 µM, the “number of genes downregulated (microarray)” value [1] was 2,295 and the “number of genes upregulated (microarray)” value [1] was 2,267. The “effect on expression of sets of MYC-activated target genes in HUWE1-depleted cells” value ([1]; genome-wide analysis, HUWE1-depleted Ls174T cells) was “no statistically significant effect”, the IC50 (ITCH) was greater than 50 µM and the “Ki67 staining of intestinal crypts” value ([2]; 10 µM, 24 hr) was “Ki67-positive”. For the same compound, the “MTT assay corrected for number of live crypts” value ([2]; 10 µM, 24 hr) was “no reduction”, the “number of live crypts, % of all crypts” value ([2]; 10 µM, 24 hr, visual inspection) was 68% and the “fraction of individual crypts that died” value [2] was “around 30%”. It also gave an IC50 (NEDD4) greater than 50 µM.

For `NCc1cccc(CNc2ncnc3c(N4CCN(Cc5ccccc5)CC4)ncnc23)c1` [BI8626], the IC50 (NEDD4L) was greater than 50 µM, the “number of genes downregulated (microarray)” value [1] was 2,923 and the “number of genes upregulated (microarray)” value [1] was 2,796. The IC50 (ITCH) was greater than 50 µM and the “fraction of individual crypts that died” value [2] was 60-80%.
